Assay results taken from patent US5200424A, “Use of 10-membered ring lactones as lipid regulators” (priority 1990, dated 1993).

Experiments:
serum lipoproteins = assay: Lipoprotein fractionation by ultracentrifugation in rats (serum cholesterol, protein, triglycerides; hypolipemic effect); format: in vivo, Rat, male, strain: HOE WISKf (SPF 71); details: for % Change compared with control, Protein LDL / % Change compared with control, Protein VLDL / % Change compared with control, Total cholesterol HDL / % Change compared with control, Total cholesterol LDL / % Change compared with control, Total cholesterol VLDL / % Change compared with control, Triglycerides VLDL / Cholesterol HDL/LDL Based on control / Cholesterol HDL/LDL: male rat, by gavage; for % Change compared with control, Protein LDL / % Change compared with control, Protein VLDL / % Change compared with control, Total cholesterol HDL / % Change compared with control, Total cholesterol LDL / % Change compared with control, Total cholesterol VLDL / % Change compared with control, Triglycerides VLDL: 7 administrations; for Cholesterol HDL/LDL Based on control: control 1.00; for Cholesterol HDL/LDL: control 3.75
Protocol: Male rats with an initial weight above 180 g received the test product of the formula I in polyethylene glycol 400 by gavage once a day (in the morning) (0.5 ml/100 g of body weight); the relevant control group received only the same amount of solvent. The last (7th) administration took place 24 hours before blood sampling and sacrifice. There was free access to feed and water during the test. Feed was withdrawn 24 hours before the retroorbital blood sampling, which took place under light ether anesthesia before and after the treatment period (that is to say on the 1st and 8th day). Serum glutamic-oxalate transaminase (SGOT), serum glutamic-pyruvic transaminase (SGPT), alkaline phosphatase (aP), bilirubin and creatinine were determined in the serum of each individual animal. […] Immediately after the blood sampling the animals were sacrificed by distortion of the spinal column. The livers were removed, and the relative liver weight was determined. In addition, the body weight gain and the feed consumption were investigated. The statistical analysis was carried out by Student's t test.
To analyze the serum lipoproteins, after the treatment period the serum of all rats in a group was pooled.

[1] = Serum enzymes, bilirubin and creatinine in rats; format: in vivo, Rat, male, strain: HOE WISKf (SPF 71); details: for Bilirubin, Final, mean / Creatinine, Final, mean / Serum enzymes SGOT, Final, mean / Serum enzymes SGPT, Final, mean / Serum enzymes aP, Final, mean / Bilirubin, Initial, mean / Creatinine, Initial, mean / Serum enzymes SGOT, Initial, mean / Serum enzymes SGPT, Initial, mean / Serum enzymes aP, Initial, mean: male rat; for Bilirubin, Final, mean / Creatinine, Final, mean / Serum enzymes SGOT, Final, mean / Serum enzymes SGPT, Final, mean / Serum enzymes aP, Final, mean: after treatment (8th day); for Bilirubin, Initial, mean / Creatinine, Initial, mean / Serum enzymes SGOT, Initial, mean / Serum enzymes SGPT, Initial, mean / Serum enzymes aP, Initial, mean: before treatment (1st day)
Protocol: (§1) Male rats with an initial weight above 180 g received the test product of the formula I in polyethylene glycol 400 by gavage once a day (in the morning) (0.5 ml/100 g of body weight); the relevant control group received only the same amount of solvent. The last (7th) administration took place 24 hours before blood sampling and sacrifice. There was free access to feed and water during the test. Feed was withdrawn 24 hours before the retroorbital blood sampling, which took place under light ether anesthesia before and after the treatment period (that is to say on the 1st and 8th day). Serum glutamic-oxalate transaminase (SGOT), serum glutamic-pyruvic transaminase (SGPT), alkaline phosphatase (aP), bilirubin and creatinine were determined in the serum of each individual animal. The total glycerol was measured from the pooled serum of all animals in a group as measure of the triglycerides (Eggstein, M. Kreutz, F. H.: Klin. Wschr. 44, 262 and 267 (1966); Wahlefeld, A. W., in: H. O. Bergmeier: Methoden der enzymatischen Analyse (Methods of enzymatic analysis), 2nd Edition, Volume II, Verlag Chemie 1974, Page 1878). Immediately after the blood sampling the animals were sacrificed by distortion of the spinal column. The livers were removed, and the relative liver weight was determined. In addition, the body weight gain and the feed consumption were investigated. The statistical analysis was carried out by Student's t test.

[2] = Body weight, relative liver weight and feed consumption in rats; format: in vivo, Rat, male, strain: HOE WISKf (SPF 71); details: male rat, after treatment
Protocol: as §1

[3] = tested on: cholesterol biosynthesis in HEP-G2 cells; assay: Cholesterol biosynthesis inhibition in HEP-G2 liver cell cultures (14C-acetate); format: cell-based; details: Homo sapiens, HepG2, standard products, 1 h preincubation, 3 h with (14C)acetate, read-out: IC50, inhibition of cholesterol biosynthesis
Protocol: Monolayers of HEP-G2 cells in liproprotein-free nutrient medium are preincubated with appropriate concentrations of the substances of the formula I to be tested for one hour. After addition of the […] biosynthesis precursor sodium (^14 C)acetate the incubation is continued for 3 hours. After this a portion of the cells is subjected to alkaline hydrolysis after addition of an internal standard of ^3 H-cholesterol. The lipids from the hydrolyzed cells are extracted with a chloroform/methanol mixture. This lipid mixture is, after addition of carrier cholesterol, fractionated by preparative thin-layer chromatography, the cholesterol band is stained and then isolated, and the amount of ^14 C-cholesterol formed from the ^14 C-precursor is determined by scintigraphy. Cellular protein was determined in an aliquot of the cells so that the amount of ^14 C-cholesterol formed from ^14 C-precursor per mg of cellular protein per unit time can be calculated. The control is used for comparison for the inhibitory effect of an added test product so that it is possible to state directly the inhibition of the cholesterol biosynthesis at a particular molar concentration of the test product in the medium. The integrity of the cell culture and the absence of cell damage owing to exposure to the product is assessed morphologically (light microscopy) and measured biochemically by determining the lactic dehydrogenase release into the incubation medium on aliquots of the cell culture.

SMILES: CC[C@H](C)C(=O)O[C@H]1C[C@@H](C)C=C2C=C[C@H](C)[C@H](CC[C@@H]3C[C@@H](O)CC(=O)O3)[C@H]21 [Lovastatin, lovastatin]
- % Change compared with control, Protein LDL (serum lipoproteins; 10 mg/kg/day): -16%
- % Change compared with control, Protein VLDL (serum lipoproteins; 10 mg/kg/day): -22%
- % Change compared with control, Total cholesterol HDL (serum lipoproteins; 10 mg/kg/day): -14%
- % Change compared with control, Total cholesterol LDL (serum lipoproteins; 10 mg/kg/day): -2%
- % Change compared with control, Total cholesterol VLDL (serum lipoproteins; 10 mg/kg/day): -32%
- % Change compared with control, Triglycerides VLDL (serum lipoproteins; 10 mg/kg/day): -15%
- Cholesterol HDL/LDL Based on control (serum lipoproteins; 10 mg/kg/day): 0.89
- Cholesterol HDL/LDL (serum lipoproteins; 10 mg/kg/day): 3.32
- % Change compared with control, Protein LDL (serum lipoproteins; 50 mg/kg/day): -19%
- % Change compared with control, Protein VLDL (serum lipoproteins; 50 mg/kg/day): -40%
- % Change compared with control, Total cholesterol HDL (serum lipoproteins; 50 mg/kg/day): -15%
- % Change compared with control, Total cholesterol LDL (serum lipoproteins; 50 mg/kg/day): -26%
- % Change compared with control, Total cholesterol VLDL (serum lipoproteins; 50 mg/kg/day): -52%
- % Change compared with control, Triglycerides VLDL (serum lipoproteins; 50 mg/kg/day): -38%
- Cholesterol HDL/LDL Based on control (serum lipoproteins; 50 mg/kg/day): 1.14
- Cholesterol HDL/LDL (serum lipoproteins; 50 mg/kg/day): 4.29
- % Change compared with control, Protein LDL (serum lipoproteins; 300 mg/kg/day): +5%
- % Change compared with control, Protein VLDL (serum lipoproteins; 300 mg/kg/day): -37%
- % Change compared with control, Total cholesterol HDL (serum lipoproteins; 300 mg/kg/day): -9%
- % Change compared with control, Total cholesterol LDL (serum lipoproteins; 300 mg/kg/day): +3%
- % Change compared with control, Total cholesterol VLDL (serum lipoproteins; 300 mg/kg/day): -49%
- % Change compared with control, Triglycerides VLDL (serum lipoproteins; 300 mg/kg/day): -34%
- Cholesterol HDL/LDL Based on control (serum lipoproteins; 300 mg/kg/day): 0.89
- Cholesterol HDL/LDL (serum lipoproteins; 300 mg/kg/day): 3.33
- effect on LDL-cholesterol compared with the compound according to the invention (serum lipoproteins; rat): distinctly inferior
- effect on VLDL and HDL compared with the compound according to the invention (serum lipoproteins; rat): about identical
- Bilirubin, Final, mean ([1]; 10 mg/kg/day): 2.7 µmol/L
- Creatinine, Final, mean ([1]; 10 mg/kg/day): 65 µmol/L
- Serum enzymes SGOT, Final, mean ([1]; 10 mg/kg/day): 59 U/L
- Serum enzymes SGPT, Final, mean ([1]; 10 mg/kg/day): 25 U/L
- Serum enzymes aP, Final, mean ([1]; 10 mg/kg/day): 302 U/L
- Bilirubin, Initial, mean ([1]; 10 mg/kg/day): 3.8 µmol/L
- Creatinine, Initial, mean ([1]; 10 mg/kg/day): 60 µmol/L
- Serum enzymes SGOT, Initial, mean ([1]; 10 mg/kg/day): 42 U/L
- Serum enzymes SGPT, Initial, mean ([1]; 10 mg/kg/day): 31 U/L
- Serum enzymes aP, Initial, mean ([1]; 10 mg/kg/day): 409 U/L
- Bilirubin, Final, mean ([1]; 50 mg/kg/day): 2.5 µmol/L
- Creatinine, Final, mean ([1]; 50 mg/kg/day): 62 µmol/L
- Serum enzymes SGOT, Final, mean ([1]; 50 mg/kg/day): 89 U/L
- Serum enzymes SGPT, Final, mean ([1]; 50 mg/kg/day): 46 U/L
- Serum enzymes aP, Final, mean ([1]; 50 mg/kg/day): 324 U/L
- Bilirubin, Initial, mean ([1]; 50 mg/kg/day): 2.9 µmol/L
- Creatinine, Initial, mean ([1]; 50 mg/kg/day): 60 µmol/L
- Serum enzymes SGOT, Initial, mean ([1]; 50 mg/kg/day): 38 U/L
- Serum enzymes SGPT, Initial, mean ([1]; 50 mg/kg/day): 31 U/L
- Serum enzymes aP, Initial, mean ([1]; 50 mg/kg/day): 355 U/L
- Bilirubin, Final, mean ([1]; 300 mg/kg/day): 2.9 µmol/L
- Creatinine, Final, mean ([1]; 300 mg/kg/day): 61 µmol/L
- Serum enzymes SGOT, Final, mean ([1]; 300 mg/kg/day): 107 U/L
- Serum enzymes SGPT, Final, mean ([1]; 300 mg/kg/day): 44 U/L
- Serum enzymes aP, Final, mean ([1]; 300 mg/kg/day): 369 U/L
- Bilirubin, Initial, mean ([1]; 300 mg/kg/day): 2.7 µmol/L
- Creatinine, Initial, mean ([1]; 300 mg/kg/day): 64 µmol/L
- Serum enzymes SGOT, Initial, mean ([1]; 300 mg/kg/day): 59 U/L
- Serum enzymes SGPT, Initial, mean ([1]; 300 mg/kg/day): 32 U/L
- Serum enzymes aP, Initial, mean ([1]; 300 mg/kg/day): 386 U/L
- transaminase SGOT change ([1]; rat): dose-dependent and distinctly pathological change
- % Change from control, Body weight after ([2]; 10 mg/kg/day): +4%
- % Change from control, rel. feed consumption after ([2]; 10 mg/kg/day): +8%
- % Change from control, Body weight after ([2]; 50 mg/kg/day): 0%
- % Change from control, rel. feed consumption after ([2]; 50 mg/kg/day): +4%
- % Change from control, Body weight after ([2]; 300 mg/kg/day): +1%
- % Change from control, rel. feed consumption after ([2]; 300 mg/kg/day): +1%
- IC50 [3]: 23 nM

SMILES: C[C@H](CCCC(C)(C)O)[C@H]1CC[C@H]2[C@@H]3CC=C4C[C@@H](O)CC[C@]4(C)[C@H]3CC[C@]12C [25-hydroxycholesterol]
- IC50 [3]: 230 nM
